Key:
PRMT5 [1] = target: T1, PRMT5 (Homo sapiens, UniProt O14744); assay: PRMT5 biochemical IC50 assay with SAM as cofactor; settings: PRMT5, SAM as cofactor; read-out: SAM IC50
T1 construct: purchased Viva (custom protein)

PRMT5 [2] = target: T1, PRMT5; assay: PRMT5 biochemical IC50 assay with no cofactor; settings: PRMT5, no cofactor
Text: Table 1 indicates IC50 values (μM) against PRMT5 for exemplary compounds in the presence of SAM as cofactor, with no cofactor, and with MTA as cofactor, respectively (columns 4-6). […] Ki values can be calculated from the IC50 values as described in the Examples section. As detailed in the Examples section, for the assay performed in the presence of SAM, IC50=Ki×1.5 (Ki=IC50/1.5).

PRMT5 [3] = target: T1, PRMT5; assay: PRMT5 biochemical IC50 assay with MTA as cofactor; settings: PRMT5, MTA as cofactor; read-out: MTA IC50
[4] = tested on: HAP1 MTAP-intact cell line; assay: SDMA in-cell western assay, HAP1 MTAP-intact; format: cell-based; settings: Homo sapiens, HAP1, SDMA in-cell western, HAP1 MTAP-intact; read-out: MTAP HAP1 intact IC50
How it was run: (§1)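 Isogenic HAP1 pair: the MTAP-intact line expresses endogenous MTAP, and the deleted line is MTAP-null. Symmetric dimethylarginine was detected by in-cell western and IC50 values derived for each line.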

[5] = tested on: HAP1 MTAP-deleted cell line; assay: SDMA in-cell western assay, HAP1 MTAP-deleted; format: cell-based; settings: for IC50: Homo sapiens, HAP1, SDMA in-cell western, HAP1 MTAP-deleted; for MTAP intact/deleted ratio: SDMA in-cell western
How it was run: as §1

[6] = tested on: HAP1 MTAP-deleted cell line; assay: Viability assay, MTAP-deleted cell line; format: cell-based; settings: Homo sapiens, read-out: HAP1 MTAP deleted viability
Text: Table 1 additionally indicates IC50 values in a viability assay for the MTAP-deleted cell line (column 10), indicating the effect of treatment with compound on cell survival.

[7] = read-out: HAP 1 MTAP deleted IC50
[8] = IC50 ratio HAP1 MTAP-intact / HAP1 MTAP-deleted
[9] = HAP1, viability IC50, MTAP-deleted cell line
[10] = read-out: HAP1 MTAP deleted IC50
[11] = IC50 ratio HAP1 MTAP-intact vs HAP1 MTAP-deleted
[12] = HAP1, viability assay, MTAP-deleted cell line
[13] = read-out: No Cofactor/ rel IC50
[14] = HAP1, viability, HAP1 MTAP-deleted cell line
[15] = HAP1, viability assay, HAP1 MTAP-deleted

T1 sequence (O14744 whole entry): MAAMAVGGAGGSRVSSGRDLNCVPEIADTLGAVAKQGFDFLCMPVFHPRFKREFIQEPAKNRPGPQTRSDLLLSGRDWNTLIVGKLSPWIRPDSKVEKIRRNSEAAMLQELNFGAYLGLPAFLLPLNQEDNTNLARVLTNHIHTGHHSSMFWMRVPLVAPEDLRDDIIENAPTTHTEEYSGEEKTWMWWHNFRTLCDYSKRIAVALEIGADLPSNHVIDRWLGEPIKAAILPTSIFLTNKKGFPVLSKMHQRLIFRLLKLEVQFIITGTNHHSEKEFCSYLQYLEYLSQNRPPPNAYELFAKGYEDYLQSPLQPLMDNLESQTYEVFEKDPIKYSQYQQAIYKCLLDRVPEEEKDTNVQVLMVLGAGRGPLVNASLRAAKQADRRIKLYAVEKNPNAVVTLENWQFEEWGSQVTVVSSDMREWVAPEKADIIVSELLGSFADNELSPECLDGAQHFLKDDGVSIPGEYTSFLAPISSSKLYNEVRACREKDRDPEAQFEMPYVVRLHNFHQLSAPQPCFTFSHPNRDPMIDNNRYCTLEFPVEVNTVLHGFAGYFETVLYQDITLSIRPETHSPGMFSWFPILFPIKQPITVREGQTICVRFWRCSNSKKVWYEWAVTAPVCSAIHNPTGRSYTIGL
T1 sequence (Q9BQA1 whole entry partner): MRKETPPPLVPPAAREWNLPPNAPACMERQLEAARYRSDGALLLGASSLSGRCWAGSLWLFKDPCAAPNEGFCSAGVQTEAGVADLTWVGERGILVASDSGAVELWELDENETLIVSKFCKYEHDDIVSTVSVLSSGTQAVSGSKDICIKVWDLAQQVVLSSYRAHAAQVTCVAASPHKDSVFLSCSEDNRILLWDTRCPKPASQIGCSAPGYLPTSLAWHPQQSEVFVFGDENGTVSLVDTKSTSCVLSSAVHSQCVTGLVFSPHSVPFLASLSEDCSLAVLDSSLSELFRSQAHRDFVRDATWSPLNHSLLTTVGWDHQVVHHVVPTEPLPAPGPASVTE

Row | IC50 (PRMT5 [1]) [nM] | IC50 (PRMT5 [2]; read-out: No Cofactor/rel IC50) [nM] | IC50 (PRMT5 [3]) [nM] | IC50 [4] [nM] | IC50 [5, 7] [nM] | IC50 [5, 10] [nM] | IC50 (PRMT5 [2]; [13]) [nM] | SMILES | MTAP intact/deleted ratio [5, 8] | IC50 [6, 9] [nM] | MTAP intact/deleted ratio [5, 11] | IC50 [6, 12] [nM] | IC50 [6, 14] [nM] | IC50 [6, 15] [nM]
1 | 50 to 500 | 50 to 500 | 50 to 500 | > 1000 | > 1000 | – | – | C[C@@H]1CC[C@@H](c2ccc(S(N)(=O)=O)cc2)N(C(=O)C(=O)Nc2cncc(C(N)=O)c2)C1 (racemic) [Compound 651, rac 5-[[2-[(2S,5R)-5-methyl-2-(4-sulfamoylphenyl)-1-piperidyl]-2-oxo-acetyl]amino]pyridine-3-carboxamide] | C (an IC50 ratio of less than 3 fold) | > 10000 | – | – | – | –
2 | 50 to 500 | < 50 | < 50 | < 100 | – | < 100 | – | CCc1cc(NC(=O)C(=O)N2C[C@@H](C)CC[C@@H]2c2ccc3sc(C4(CN(C)C)COC4)nc3c2)cnc1N [Compound 1165, N-(6-amino-5-ethylpyridin-3-yl)-2-((2R,5S)-2-(2-(3-((dimethylamino)methyl)oxetan-3-yl)benzo[d]thiazol-5-yl)-5-methylpiperidin-1-yl)-2-oxoacetamide] | – | – | B (an IC50 ratio greater than or equal to 3 fold but lower than 10 fold) | < 1000 | – | –
3 | > 500 | – | 50 to 500 | > 1000 | 100 to 1000 | – | > 500 | CCc1cc(NC(=O)C(=O)N2C[C@H](C)CC[C@H]2c2ccc(N3CCC4(CCCN(C)C4)CC3)cc2)cnc1N (single isomer, unassigned) [Compound 1269] | – | – | – | – | 1000 to 10000 | –
4 | 50 to 500 | < 50 | < 50 | 100 to 1000 | – | < 100 | – | CCc1cc(NC(=O)C(=O)N2C[C@H](C)CC[C@H]2c2ccc(N3CCN(CC)CC3)cc2)cnc1N (single isomer, unassigned) [Compound 1097] | – | – | A (an IC50 ratio greater than or equal to 10 fold) | < 1000 | – | –
5 | 50 to 500 | – | 50 to 500 | > 1000 | > 1000 | – | > 500 | C[C@H]1CC[C@@H](c2cccnc2)N(C(=O)C(=O)Nc2cncc(C(N)=O)c2)C1 (single isomer, unassigned) [Compound 104] | B (an IC50 ratio greater than or equal to 3 fold but lower than 10 fold) | – | – | > 10000 | – | –
6 | < 50 | – | < 50 | 100 to 1000 | < 100 | – | < 50 | C[C@@H]1CC[C@@H](c2ccc3sc(CCN(C)C)nc3c2)N(C(=O)C(=O)Nc2cncc(C(N)=O)c2)C1 (single isomer, unassigned) [Compound 1254] | A (an IC50 ratio greater than or equal to 10 fold) | – | – | – | < 1000 | –
7 | 50 to 500 | 50 to 500 | < 50 | > 1000 | – | 100 to 1000 | – | C[C@@H]1CC[C@@H](c2ccc3c(c2)CCC3)N(C(=O)C(=O)Nc2cncc(C(N)=O)c2)C1 (racemic) [Compound 277, rac-5-{2-[(2R,5S)-2-(2,3-Dihydro-1H-inden-5-yl)-5-methylpiperidin-1-yl]-2-oxoacetamido}pyridine-3-carboxamide] | A (an IC50 ratio greater than or equal to 10 fold) | – | – | 1000 to 10000 | – | –
8 | < 50 | < 50 | < 50 | < 100 | – | < 100 | – | CCc1cc(NC(=O)C(=O)N2C[C@@H](C)CC[C@@H]2c2ccc3sc([C@H]4CCN(C)C(C)(C)C4)nc3c2)cnc1N [Compound 1125, N-(6-amino-5-ethylpyridin-3-yl)-2-((2R,5S)-5-methyl-2-(2-(1,2,2-trimethylpiperidin-4-yl)benzo[d]thiazol-5-yl)piperidin-1-yl)-2-oxoacetamide] | – | – | A (an IC50 ratio greater than or equal to 10 fold) | < 1000 | – | –
9 | 50 to 500 | < 50 | < 50 | 100 to 1000 | – | < 100 | – | CCc1cc(NC(=O)C(=O)N2C[C@@H](C)CC[C@@H]2c2ccc(N3CC[C@H]4CCN(C)C[C@H]4C3)cc2)cnc1N (single isomer, unassigned) [Compound 1204] | – | – | A (an IC50 ratio greater than or equal to 10 fold) | < 1000 | – | –
10 | 50 to 500 | – | < 50 | > 1000 | 100 to 1000 | – | 50 to 500 | Cc1cccc(C2CCCCN2C(=O)C(=O)Nc2cnc(N)c(C)c2)c1 (racemic) [Compound 31, N-(6-Amino-5-methyl-3-pyridyl)-2-[2-(m-tolyl)-1-piperidyl]-2-oxo-acetamide] | A (an IC50 ratio greater than or equal to 10 fold) | – | – | > 10000 | – | –
11 | 50 to 500 | – | 50 to 500 | > 1000 | > 1000 | – | > 500 | Cc1cc(NC(=O)C(=O)N2CCCCC2c2cccc3scnc23)cnc1N (stereo not drawn) [Compound 129, N-(6-Amino-5-methyl-3-pyridyl)-2-[2-(1,3-benzothiazol-4-yl)-1-piperidyl]-2-oxo-acetamide] | B (an IC50 ratio greater than or equal to 3 fold but lower than 10 fold) | – | – | > 10000 | – | –
12 | > 500 | > 500 | > 500 | > 1000 | – | > 1000 | – | COc1ncc(NC(=O)C(=O)N2C[C@@H](C)CC[C@@H]2c2ccc(NC(C)=O)cc2)cc1C(N)=O (single isomer, unassigned) [Compound 761] | C (an IC50 ratio of less than 3 fold) | – | – | – | – | > 10000
13 | 50 to 500 | < 50 | < 50 | 100 to 1000 | < 100 | – | – | Cc1cc(NC(=O)C(=O)N2C[C@@H](C)CC[C@@H]2c2ccc3[nH]ncc3c2)cnc1C (single isomer, unassigned) [Compound 620] | A (an IC50 ratio greater than or equal to 10 fold) | < 1000 | – | – | – | –
14 | > 500 | > 500 | 50 to 500 | > 1000 | – | > 1000 | – | Cc1cc(NC(=O)C(=O)N2C[C@H](C)CC[C@H]2[C@H]2CC3(C[C@H](C(N)=O)C3)C2)cnc1N (mixture of isomers) [Compound 812, 6-(1-(2-((6-amino-5-methylpyridin-3-yl)amino)-2-oxoacetyl)-5-methylpiperidin-2-yl)spiro[3.3]heptane-2-carboxamide] | C (an IC50 ratio of less than 3 fold) | – | – | – | – | > 10000
15 | 50 to 500 | 50 to 500 | < 50 | > 1000 | – | 100 to 1000 | – | C[C@@H]1CC[C@@H](c2cncc(Cl)c2)N(C(=O)C(=O)Nc2cncc(C(N)=O)c2)C1 (racemic) [Compound 791, 5-(2-(2-(5-chloropyridin-3-yl)-5-methylpiperidin-1-yl)-2-oxoacetamido)nicotinamide] | A (an IC50 ratio greater than or equal to 10 fold) | – | – | – | – | 1000 to 10000
16 | < 50 | – | < 50 | 100 to 1000 | < 100 | – | < 50 | CCc1cc(NC(=O)C(=O)N2C[C@@H](C)CC[C@@H]2c2ccc(N3CCC(CN4CCCC4)CC3)cc2)cnc1N [Compound 1276, N-(6-Amino-5-ethylpyridin-3-yl)-2-[(2R,5S)-5-methyl-2-(4-{4-[(pyrrolidin-1-yl)methyl]piperidin-1-yl}phenyl)piperidin-1-yl]-2-oxoacetamide] | A (an IC50 ratio greater than or equal to 10 fold) | – | – | – | < 1000 | –

Reference: patent US11999727B2 (Tango Therapeutics, Inc., priority 2020, dated 2024)
